From ChEMBL document CHEMBL4257548, “Phenothiazine antioxidants increase mitochondrial biogenesis and frataxin levels in Friedreich's ataxia cells” (Medchemcomm, 2018)
Calls of active or inactive are those of the source. No cut-off for these calls is given here.

Columns and labels:
GM16216 [1] = assay: Restoration of total aconitase activity in human GM16216 cells at 50 nM after 5 days by colorimetric method relative to control; type: functional
GM16216 [2] = assay: Effect on frataxin expression in human GM16216 cells at 50 nM after 48 hrs by ELISA relative to control; type: functional
GM15850 [3] = assay: Restoration of total aconitase activity in human GM15850 cells at 50 nM after 5 days by colorimetric method relative to control; type: functional
GM15850 [4] = assay: Effect on frataxin expression in human GM15850 cells at 50 nM after 24 hrs by ELISA relative to control; type: functional
GM16216 [5] = assay: Induction of mitochondrial biogenesis in human GM16216 cells assessed as ratio of COX1 to SDH-A protein levels at 50 after 24 hrs by ELISA relative to control; type: functional
GM16216 [6] = assay: Induction of mitochondrial biogenesis in human GM16216 cells assessed as ratio of COX1 to SDH-A protein levels at 250 after 48 hrs by ELISA relative to control; type: functional
GM15850 [7] = assay: Induction of mitochondrial biogenesis in human GM15850 cells assessed as ratio of COX1 to SDH-A protein levels at 250 after 24 hrs by ELISA relative to control; type: functional
GM15850 [8] = assay: Restoration of total aconitase activity in human GM15850 cells at 250 nM after 5 days by colorimetric method relative to control; type: functional
GM16216 [9] = assay: Effect on frataxin expression in human GM16216 cells at 250 nM after 48 hrs by ELISA relative to control; type: functional
GM16216 [10] = assay: Restoration of total aconitase activity in human GM16216 cells at 250 nM after 5 days by colorimetric method relative to control; type: functional
GM16216 [11] = assay: Effect on frataxin expression in human GM16216 cells at 50 nM after 24 hrs by ELISA relative to control; type: functional
GM15850 [12] = assay: Effect on frataxin expression in human GM15850 cells at 250 nM after 48 hrs by ELISA relative to control; type: functional
GM15850 [13] = assay: Effect on frataxin expression in human GM15850 cells at 250 nM after 24 hrs by ELISA relative to control; type: functional
GM15850 [14] = assay: Effect on frataxin expression in human GM15850 cells at 50 nM after 48 hrs by ELISA relative to control; type: functional
GM16216 [15] = assay: Effect on frataxin expression in human GM16216 cells at 250 nM after 24 hrs by ELISA relative to control; type: functional
GM15850 [16] = assay: Induction of mitochondrial biogenesis in human GM15850 cells assessed as ratio of COX1 to SDH-A protein levels at 250 after 48 hrs by ELISA relative to control; type: functional
GM15850 [17] = assay: Induction of mitochondrial biogenesis in human GM15850 cells assessed as ratio of COX1 to SDH-A protein levels at 50 after 24 hrs by ELISA relative to control; type: functional
GM16216 [18] = assay: Induction of mitochondrial biogenesis in human GM16216 cells assessed as ratio of COX1 to SDH-A protein levels at 50 after 48 hrs by ELISA relative to control; type: functional
GM15850 [19] = assay: Induction of mitochondrial biogenesis in human GM15850 cells assessed as ratio of COX1 to SDH-A protein levels at 50 after 48 hrs by ELISA relative to control; type: functional
GM16216 [20] = assay: Induction of mitochondrial biogenesis in human GM16216 cells assessed as ratio of COX1 to SDH-A protein levels at 250 after 24 hrs by ELISA relative to control; type: functional
GM16216 [21] = assay: Increase in frataxin expression in human GM16216 cells at 50 to 250 nM after 24 to 48 hrs by ELISA; type: functional, cell-based
GM16216 [22] = assay: Induction of mitochondrial biogenesis in human GM16216 cells assessed as increase in ratio of COX1 to SDH-A protein levels at 50 to 250 nM after 24 to 48 hrs by ELISA; type: functional, cell-based
GM16216 [23] = assay: Cytoprotection against DEM-induced toxicity in human GM16216 cells assessed as increase in cell viability at 0.5 to 2.5 uM pretreated for 16 hrs followed by DEM addition and measured after 5 hrs by live/dead staining based flow cytometry; type: functional
GM15850 [24] = assay: Cytoprotection against DEM-induced toxicity in human GM15850 cells assessed as increase in cell viability at 0.5 to 2.5 uM pretreated for 16 hrs followed by DEM addition and measured after 5 hrs by live/dead staining based flow cytometry; type: functional
GM15850 [25] = assay: Induction of mitochondrial biogenesis in human GM15850 cells assessed as increase in ratio of COX1 to SDH-A protein levels at 50 to 250 nM after 24 to 48 hrs by ELISA; type: functional, cell-based
GM15850 [26] = assay: Increase in frataxin expression in human GM15850 cells at 50 to 250 nM after 24 to 48 hrs by ELISA; type: functional, cell-based
GM16216 [27] = assay: Inhibition of ATP production in human GM16216 cells after 24 hrs by Vialight reagent based luminescence assay; type: functional, cell-based
GM15850 [28] = assay: Inhibition of ATP production in human GM15850 cells after 24 hrs by Vialight reagent based luminescence assay; type: functional, cell-based
GM15850 [29] = assay: Effect on ATP production in human GM15850 cells at 0.1 uM after 24 hrs by Vialight reagent based luminescence assay; type: functional, cell-based
GM16216 [30] = assay: Effect on ATP production in human GM16216 cells at 0.1 uM after 24 hrs by Vialight reagent based luminescence assay; type: functional, cell-based
GM15850 [31] = assay: Effect on mitochondrial membrane potential in human GM15850 cells assessed as loss of mitochondrial membrane potential at 0.25 uM after 16 hrs by JC1 staining based flow cytometry (reference value: 13%); type: functional
GM15850 [32] = assay: Cytotoxicity against human GM15850 cells at 2.5 uM after 24 to 48 hrs by live/dead staining-based flow cytometry; type: cell-based; settings: gm15850, 2.5 µM
GM16216 [33] = assay: Effect on mitochondrial membrane potential in human GM16216 cells assessed as loss of mitochondrial membrane potential at 0.25 uM after 16 hrs by JC1 staining based flow cytometry (reference value: 13%); type: functional
GM15850 [34] = assay: Effect on mitochondrial membrane potential in human GM15850 cells assessed as intact mitochondrial membrane at 0.25 uM after 16 hrs by JC1 staining based flow cytometry (reference value: 87%); type: functional
GM16216 [35] = assay: Effect on mitochondrial membrane potential in human GM16216 cells assessed as intact mitochondrial membrane at 0.25 uM after 16 hrs by JC1 staining based flow cytometry (reference value: 87%); type: functional
GM16216 [36] = assay: Cytotoxicity against human GM16216 cells at 2.5 uM after 24 to 48 hrs by live/dead staining-based flow cytometry; type: cell-based; settings: gm16216, 2.5 µM
GM16216 [37] = assay: Increase in frataxin expression in human GM16216 cells at 50 nM after 24 to 48 hrs by ELISA; type: functional, cell-based
GM15850 [38] = assay: Increase in frataxin expression in human GM15850 cells at 250 nM after 24 to 48 hrs by ELISA; type: functional, cell-based
GM15850 [39] = assay: Increase in frataxin expression in human GM15850 cells at 50 nM after 24 to 48 hrs by ELISA; type: functional, cell-based
GM16216 [40] = assay: Increase in frataxin expression in human GM16216 cells at 250 nM after 24 to 48 hrs by ELISA; type: functional, cell-based

SMILES | Activity (GM16216 [23]) | Activity (GM15850 [24]) | inhibition (GM16216 [27]) | inhibition (GM15850 [28]) | Activity (GM15850 [29]) | Activity (GM16216 [30]) | Activity (GM15850 [31]) | Activity (GM15850 [32]) | Activity (GM16216 [33]) | Activity (GM15850 [34]) | Activity (GM16216 [35]) | Activity (GM16216 [36]) | other results
CCCCCCCCCCCCCCCN(C)c1ccc2nc3ccc(=O)cc-3sc2c1 | – | – | – | – | – | – | – | – | – | – | – | – | Activity (GM16216 [1]): 116%; Activity (GM16216 [2]): 120%; Activity (GM15850 [3]): 116%; Activity (GM15850 [4]): 114%; Activity (GM16216 [5]): 120%; Activity (GM16216 [6]): 137%; Activity (GM15850 [7]): 127%; Activity (GM15850 [8]): 123%; Activity (GM16216 [9]): 127%; Activity (GM16216 [10]): 123%; Activity (GM16216 [11]): 114%; Activity (GM15850 [12]): 127%; Activity (GM15850 [13]): 118%; Activity (GM15850 [14]): 120%; Activity (GM16216 [15]): 118%; Activity (GM15850 [16]): 137%; Activity (GM15850 [17]): 120%; Activity (GM16216 [18]): 128%; Activity (GM15850 [19]): 128%; Activity (GM16216 [20]): 127%
CN(C)c1ccc2nc3ccc(=[N+](C)C)cc-3sc2c1 | Active | Active | Dose-dependent effect | Dose-dependent effect | inactive | inactive | – | – | – | – | – | – | Activity (GM16216 [21]): Active; Activity (GM16216 [22]): Active; Activity (GM15850 [25]): Active; Activity (GM15850 [26]): Active
CCCCCCCCCCCCCc1cc2nc3ccc(N(C)C)cc3sc-2cc1=[N+](C)C.[I-] | Active | Active | Dose-dependent effect | Dose-dependent effect | inactive | inactive | 18% | Toxic | 18% | 82% | 82% | Toxic | –
CCCCCCCCCCCc1cc2nc3ccc(N(C)C)cc3sc-2cc1=[N+](C)C.[I-] | – | – | Dose-dependent effect | Dose-dependent effect | inactive | inactive | 18% | Toxic | 18% | 82% | 82% | Toxic | Activity (GM16216 [37]): Active; Activity (GM15850 [38]): inactive; Activity (GM15850 [39]): Active; Activity (GM16216 [40]): inactive
